Calls of active or inactive are those of the source.
Experiments:
cells [1] = format: functional, cell-based
[2] = biological target: T1, Trace amine-associated receptor 1 (Homo sapiens, UniProt Q96RJ0); assay: Fluorescence-based cell-based high throughput dose response assay to identify agonists of the human trace amine associated receptor 1 (TAAR1).; format: functional
T1 sequence (Q96RJ0 whole entry): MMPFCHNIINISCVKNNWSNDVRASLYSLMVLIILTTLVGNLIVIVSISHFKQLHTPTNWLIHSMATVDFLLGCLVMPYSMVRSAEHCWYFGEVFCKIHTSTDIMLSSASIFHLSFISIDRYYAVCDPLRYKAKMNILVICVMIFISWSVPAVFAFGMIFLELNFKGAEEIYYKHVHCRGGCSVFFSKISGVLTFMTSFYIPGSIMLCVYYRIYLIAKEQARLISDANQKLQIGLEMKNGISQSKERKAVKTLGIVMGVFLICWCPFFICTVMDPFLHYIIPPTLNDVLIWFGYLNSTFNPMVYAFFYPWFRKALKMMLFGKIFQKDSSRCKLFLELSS

[3] = biological target: T1, Trace amine-associated receptor 1; assay: Counterscreen for agonists of the human trace amine associated receptor 1 (hTAAR1): Fluorescence-based cell-based high throughput dose response assay to identify hTAAR1 agonist that also desensitize TAAR1 receptor response.; format: functional
cells [4] = format: functional, cell-based; remark: listed apart in the source
[5] = biological target: Protein disulfide-isomerase (Homo sapiens, UniProt P07237); assay: PDI inhibitors, insulin turbidity readout, confirmation, biochemical, dry powder samples, set 2 (AID 652146)
[6] = biological target: Potassium channel subfamily K member 9 (Homo sapiens, UniProt Q9NPC2); assay: TASK3 (KCNK9) channel inhibitors, thallium flux, SAR follow-up, selectivity assay for TASK1 inhibitor project, cell-based, FluxOR thallium flux, concentration-response (AID 652211); format: functional;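 note: potency is for inhibitors of the channel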
[7] = biological target: Potassium channel subfamily K member 3 (Rattus norvegicus, UniProt O54912); assay: SAR analysis for the identification of selective inhibitors of the two-pore domain potassium channel TASK1(KCNK3):Automated Electrophysiology.; format: functional
[8] = biological target: Potassium channel subfamily K member 3 (Homo sapiens, UniProt O14649); assay: TASK1 (KCNK3) potassium channel inhibitors, SAR follow-up, CHO cells, FluxOR thallium flux (AID 652212); format: functional
NS3 = NS3 (Hepatitis C virus, UniProt A3EZJ3); assay: HCV NS3 helicase inhibitor potency, dose response, biochemical, fluorescence polarization, ChemBridge library (AID 743264)
[9] = biological target: Voltage-gated inwardly rectifying potassium channel KCNH2 (Homo sapiens, UniProt Q12809); assay: hERG channel inhibition in selectivity testing, SAR follow-up, selectivity assay for TASK1 inhibitor project, FluxOR thallium flux, concentration-response, CHO cells (AID 652194); format: functional, cell-based
[10] = test system: Streptococcus sp. 'group A'; assay: growth inhibition of control SK(-) GAS strain, dose response, counter-screen for streptokinase expression inhibitor project, luminescence, kanamycin, BacTiterGlo, confirmation (AID 1900); format: functional, organism-based
Streptokinase A = biological target: T2, Streptokinase A (Streptococcus pyogenes serotype M1, UniProt P10520); assay: S. pyogenes streptokinase expression inhibitors, potency, dose response, plasminogen activation absorbance, OD405 (AID 1914); format: functional, Streptococcus pyogenes M1 GAS;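 note: secreted streptokinase activity via plasminogen activation per viability signal from cell pellet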
T2 sequence (P10520 whole entry): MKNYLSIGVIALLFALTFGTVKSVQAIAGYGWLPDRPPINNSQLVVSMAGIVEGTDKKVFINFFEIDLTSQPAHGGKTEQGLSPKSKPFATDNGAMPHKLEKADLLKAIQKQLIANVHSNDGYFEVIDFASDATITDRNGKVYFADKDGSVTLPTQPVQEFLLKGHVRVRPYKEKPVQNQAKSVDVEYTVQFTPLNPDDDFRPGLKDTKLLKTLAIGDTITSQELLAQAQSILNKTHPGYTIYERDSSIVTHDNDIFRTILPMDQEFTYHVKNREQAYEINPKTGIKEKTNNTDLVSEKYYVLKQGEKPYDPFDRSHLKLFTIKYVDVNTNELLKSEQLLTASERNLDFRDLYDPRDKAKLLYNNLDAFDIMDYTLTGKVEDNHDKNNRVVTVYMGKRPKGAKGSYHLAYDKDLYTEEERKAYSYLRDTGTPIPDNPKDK

[11] = inhibitors of intracellular T. cruzi replication, confirmation, NIH3T3 host cells, beta-gal luminescence (AID 2044); format: functional, cell-based;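 note: intracellular parasites grown in NIH/3T3 mouse fibroblasts as host cells; luminescent beta-galactosidase reporter signal from transgenic T. cruzi replicating inside host cells; inhibitors lower the luminescence signal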
[12] = cytotoxicity toward NIH3T3 fibroblasts, dose response, counter-screen, cell-based, ATP luminescence, mouse fibroblasts (AID 2010); format: functional;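 note: cells exposed to compound for about 90 hours before reading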
Streptococcus = assay: Group A Streptococcus viability loss, dose response, counter-screen for streptokinase expression inhibitor project, luminescence, BacTiterGlo (AID 1915); format: functional, organism-based;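 note: potency for reduction of bacterial viability or growth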
[13] = HepG2 cell cytotoxicity, dose response, cytotoxicity control, ATP luminescence, cherry-pick, activator set 2 (AID 1053143); format: functional, cell-based

Potassium channel subfamily K member 3 (Homo sapiens, UniProt O14649), sequence (O14649 whole entry): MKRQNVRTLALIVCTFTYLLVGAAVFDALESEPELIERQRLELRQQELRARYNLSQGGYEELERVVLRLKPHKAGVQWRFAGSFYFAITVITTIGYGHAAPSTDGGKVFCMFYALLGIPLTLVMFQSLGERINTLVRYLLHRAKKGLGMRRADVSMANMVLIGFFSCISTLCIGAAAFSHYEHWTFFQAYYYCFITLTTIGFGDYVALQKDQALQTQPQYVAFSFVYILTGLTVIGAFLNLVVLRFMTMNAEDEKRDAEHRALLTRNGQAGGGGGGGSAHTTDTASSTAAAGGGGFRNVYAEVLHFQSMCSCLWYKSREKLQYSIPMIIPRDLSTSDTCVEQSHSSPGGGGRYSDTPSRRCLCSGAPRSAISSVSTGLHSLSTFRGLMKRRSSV
Potassium channel subfamily K member 9, sequence (Q9NPC2 whole entry, the tested form may be a part): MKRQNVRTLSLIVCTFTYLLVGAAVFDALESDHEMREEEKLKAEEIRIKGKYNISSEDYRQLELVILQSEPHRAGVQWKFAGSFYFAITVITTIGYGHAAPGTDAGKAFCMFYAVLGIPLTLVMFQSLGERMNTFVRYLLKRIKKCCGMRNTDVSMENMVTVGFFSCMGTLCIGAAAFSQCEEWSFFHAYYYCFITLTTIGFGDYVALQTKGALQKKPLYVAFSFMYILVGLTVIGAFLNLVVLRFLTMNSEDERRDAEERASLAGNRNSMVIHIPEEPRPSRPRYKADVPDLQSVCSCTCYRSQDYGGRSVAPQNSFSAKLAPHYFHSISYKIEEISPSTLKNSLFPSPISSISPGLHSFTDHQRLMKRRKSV
Potassium channel subfamily K member 3 (Rattus norvegicus, UniProt O54912), sequence (O54912 whole entry, the tested form may be a part): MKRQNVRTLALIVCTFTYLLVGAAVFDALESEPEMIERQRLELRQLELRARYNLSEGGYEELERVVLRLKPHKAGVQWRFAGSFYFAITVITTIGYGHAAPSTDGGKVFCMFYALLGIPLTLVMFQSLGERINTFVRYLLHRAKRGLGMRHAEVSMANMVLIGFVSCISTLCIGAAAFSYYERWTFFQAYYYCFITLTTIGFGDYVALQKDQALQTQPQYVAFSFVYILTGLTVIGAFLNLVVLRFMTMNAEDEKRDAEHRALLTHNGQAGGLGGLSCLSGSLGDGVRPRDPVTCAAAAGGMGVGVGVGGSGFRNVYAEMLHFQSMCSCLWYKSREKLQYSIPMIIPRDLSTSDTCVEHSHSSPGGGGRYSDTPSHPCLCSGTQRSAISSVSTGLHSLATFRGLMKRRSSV
NS3, sequence (A3EZJ3 whole entry): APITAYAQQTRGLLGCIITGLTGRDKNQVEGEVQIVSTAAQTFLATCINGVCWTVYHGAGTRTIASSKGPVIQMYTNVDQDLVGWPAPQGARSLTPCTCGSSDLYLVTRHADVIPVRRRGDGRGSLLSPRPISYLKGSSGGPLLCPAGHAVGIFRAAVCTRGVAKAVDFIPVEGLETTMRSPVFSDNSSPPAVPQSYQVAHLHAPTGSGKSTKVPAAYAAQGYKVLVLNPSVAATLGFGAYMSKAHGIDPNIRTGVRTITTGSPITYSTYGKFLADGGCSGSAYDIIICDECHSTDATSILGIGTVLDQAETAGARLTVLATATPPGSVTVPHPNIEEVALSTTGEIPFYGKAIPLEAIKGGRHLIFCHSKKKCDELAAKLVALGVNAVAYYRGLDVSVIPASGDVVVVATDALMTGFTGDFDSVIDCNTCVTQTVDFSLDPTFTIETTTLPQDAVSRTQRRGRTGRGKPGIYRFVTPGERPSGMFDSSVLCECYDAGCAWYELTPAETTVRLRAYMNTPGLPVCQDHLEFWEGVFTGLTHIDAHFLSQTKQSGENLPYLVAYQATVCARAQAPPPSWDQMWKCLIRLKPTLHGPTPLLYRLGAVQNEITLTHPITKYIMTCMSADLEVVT
Protein disulfide-isomerase, sequence (P07237 whole entry): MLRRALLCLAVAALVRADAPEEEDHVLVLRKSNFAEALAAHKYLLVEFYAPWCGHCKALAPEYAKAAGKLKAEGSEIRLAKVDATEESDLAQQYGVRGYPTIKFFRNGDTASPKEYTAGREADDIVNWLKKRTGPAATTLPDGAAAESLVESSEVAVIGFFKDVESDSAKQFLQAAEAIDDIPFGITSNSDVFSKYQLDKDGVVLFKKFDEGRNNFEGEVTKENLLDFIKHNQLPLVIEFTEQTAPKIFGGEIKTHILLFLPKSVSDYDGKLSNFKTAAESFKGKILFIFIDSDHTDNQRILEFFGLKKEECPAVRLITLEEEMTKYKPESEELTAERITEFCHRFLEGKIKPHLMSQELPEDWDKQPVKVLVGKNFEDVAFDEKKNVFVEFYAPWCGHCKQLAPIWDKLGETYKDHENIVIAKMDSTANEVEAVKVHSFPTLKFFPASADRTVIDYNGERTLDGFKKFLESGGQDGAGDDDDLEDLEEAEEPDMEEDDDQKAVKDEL
Voltage-gated inwardly rectifying potassium channel KCNH2, sequence (Q12809 whole entry): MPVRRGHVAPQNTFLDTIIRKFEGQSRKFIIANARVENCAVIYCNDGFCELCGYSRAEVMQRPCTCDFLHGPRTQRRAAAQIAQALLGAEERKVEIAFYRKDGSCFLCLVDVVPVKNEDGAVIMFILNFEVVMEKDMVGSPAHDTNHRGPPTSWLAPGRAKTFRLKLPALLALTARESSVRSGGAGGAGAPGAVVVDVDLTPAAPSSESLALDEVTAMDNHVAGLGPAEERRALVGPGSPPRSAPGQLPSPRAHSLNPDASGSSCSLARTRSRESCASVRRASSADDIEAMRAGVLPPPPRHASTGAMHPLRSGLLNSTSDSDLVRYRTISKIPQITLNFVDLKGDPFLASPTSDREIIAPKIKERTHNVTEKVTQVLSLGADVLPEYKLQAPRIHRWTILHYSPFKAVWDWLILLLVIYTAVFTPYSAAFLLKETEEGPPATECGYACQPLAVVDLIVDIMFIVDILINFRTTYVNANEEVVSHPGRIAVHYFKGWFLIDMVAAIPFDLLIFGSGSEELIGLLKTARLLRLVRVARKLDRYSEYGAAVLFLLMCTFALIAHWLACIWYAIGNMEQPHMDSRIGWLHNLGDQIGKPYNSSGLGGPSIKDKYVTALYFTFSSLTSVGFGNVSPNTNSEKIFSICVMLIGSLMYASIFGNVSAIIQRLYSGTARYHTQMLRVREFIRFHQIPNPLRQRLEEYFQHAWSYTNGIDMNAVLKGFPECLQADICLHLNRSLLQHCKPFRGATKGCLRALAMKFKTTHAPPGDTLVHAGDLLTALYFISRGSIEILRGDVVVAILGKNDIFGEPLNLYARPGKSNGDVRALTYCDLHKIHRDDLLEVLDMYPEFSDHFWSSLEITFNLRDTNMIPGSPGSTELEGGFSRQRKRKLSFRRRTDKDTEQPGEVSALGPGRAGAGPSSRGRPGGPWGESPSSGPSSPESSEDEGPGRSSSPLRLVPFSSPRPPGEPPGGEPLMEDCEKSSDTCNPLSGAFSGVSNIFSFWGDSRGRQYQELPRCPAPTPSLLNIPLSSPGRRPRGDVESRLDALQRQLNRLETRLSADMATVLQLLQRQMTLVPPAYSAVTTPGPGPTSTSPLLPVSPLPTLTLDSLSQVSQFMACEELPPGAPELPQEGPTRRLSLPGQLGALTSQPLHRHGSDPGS

## CC(C)[C@H](NC(=O)CC1CCCC1)C(=O)N1CCC[C@H]1C(=O)NCCc1ccccc1Cl
Cells [1]
  IC50: > 29.9 µM (inactive)
[2]
  EC50: 2.01 µM (active)
[3]
  IC50: 4 µM (active)
Cells [4]
  EC50: > 29.9 µM (inactive)

## CCOC(=O)C1(CCOc2ccccc2)CCN(Cc2ccc(OC)c(Cl)c2)CC1
[5]
  AC50: > 30 µM (inactive)

## Cc1cccc(C(=O)Nc2cccc(NC(=O)c3ccccc3OC(F)(F)F)c2)c1
[6]
  IC50: 1.05 µM (active)
[7]
  IC50: 0.06 µM (active)
[8]
  IC50: 0.028 µM (active)

## Cc1ccc(N2C(=O)NC(=O)/C(=C\c3ccc(-c4ccc(Cl)c(C(=O)O)c4)o3)C2=O)cc1
NS3
  IC50: 133 µM (active)

## COc1ccccc1NC(=O)c1cccc(NC(=O)C2CCCC2)c1
[6]
  IC50: 1.55 µM (active)
[9]
  IC50: 43.5 µM (active)
[8]
  IC50: 0.238 µM (active)

## Cc1nn(-c2ccccc2)c(C)c1/C=N/Nc1nc2ccccc2[nH]1
[10]
  EC50: 7.89 µM (active)
Streptokinase A
  EC50: > 150 µM (not active)
[11]
  EC50: 2.15 µM (active)
[12]
  EC50: > 60 µM (not active)
Streptococcus
  EC50: > 150 µM (not active)
[13]
  AC50: 26 µM (active)

From ChEMBL document CHEMBL1201862, “PubChem BioAssay data set” (2004)
